Consider 1 molecule from patent US20220143021A1 (Cardiff Oncology, Inc., priority 2019, published 2022).

Data set [1] deals with human prostate tissues. Nature of the data set: organ bath, methoxamine-induced contractions of human prostate strips. The protocol: (§1) Human prostate tissues were obtained from patients undergoing radical prostatectomy for prostate cancer (n=107). Patients who underwent previous transurethral resection of the prostate (TURP) were excluded. This study was carried out in accordance with the Declaration of Helsinki of the World Medical Association, and has been approved by the ethics committee of the Ludwig-Maximilians University, Munich, Germany (Ethikkommission bei der LMU Munchen, approval number 19-737). Informed consent was obtained from all patients. According to the ethical approval, samples and data were collected and analyzed anonymously, so that no data on patients' characteristics were stored. […]
(§2) Prostate strips (6×3×3 mm) were mounted in 10 ml aerated (95% 02 and 5% CO2) tissue baths (Danish Myotechnology, Aarhus, Denmark), containing Krebs-Henseleit solution (37° C., pH 7.4) with following composition: 118 mM NaCl, 4.7 mM KCl, 2.55 mM CaCl2), 1.2 mM KH2PO4, 1.2 mM MgSO4, 25 mM NaHCO3, 7.5 mM glucose. […] Only one curve was recorded with each sample, i. e. for one agonist, or for electric field stimulation (EFS).
(§3) After mounting in organ bath chambers, preparations were stretched to 4.9 mN and left to equilibrate for 45 min. […] After the equilibration period, maximum contraction induced by 80 mM KCl was assessed. […]

In data set [2] the test system is human prostate tissues. Description: organ bath, U46619-induced contractions of human prostate strips. Conditions: 100 nM onvansertib. How it is done:
as §1, §2, §3

The next data set deals with CK2. Conditions: Valsasina et al., 2012; cited from earlier work.
The subject of data set [3] is human prostate tissues. Description: organ bath, endothelin-1-induced contractions of human prostate strips. Conditions: read-out: inhibition of endothelin-1-induced contraction. How it is done:
as §1, §2, §3

The test system of data set [4] is human prostate tissues. Nature of the data set: organ bath, noradrenaline-induced contractions of human prostate strips. How it is done: Human prostate tissues were obtained from patients undergoing radical prostatectomy for prostate cancer (n=107). Patients who underwent previous transurethral resection of the prostate (TURP) were excluded. This study was carried out in accordance with the Declaration of Helsinki of the World Medical Association, and has been approved by the ethics committee of the Ludwig-Maximilians University, Munich, Germany (Ethikkommission bei der LMU Munchen, approval number 19-737). Informed consent was obtained from all patients. According to the ethical approval, samples and data were collected and analyzed anonymously, so that no data on patients' characteristics were stored. Samples were taken immediately after prostatectomy, following macroscopical examination by an uro-pathologist. All tissues were taken from the periurethral zone, considering that most prostate cancers arise in the peripheral zone (Pradidarcheep et al., 2011; Shaikhibrahim et al., 2012). […] BPH is present in 80-83% of patients with prostate cancer (Alcaraz et al., 2009; Orsted and Bojesen, 2013). Typically, such tissues show varying content of prostate-specific antigen (PSA), and different contents of smooth muscle and glandular epithelia, reflecting that BPH is present to different degree (Wang et al., 2016a, 2016c). For macroscopic examination and sampling, the prostate was opened by a single longitudinal cut from the capsule to the urethra. Subsequently, both intersections were checked macroscopically for any obvious tumor infiltration. Because tumors are usually located to the peripheral zone, tumor infiltration in the periurethral zone (where sampling was performed) was very rare (found in less than 1% of prostates). Prostates showing tumors in the periurethral zone in macroscopic inspection were not subjected to sampling and were not included in this study. Organ bath studies were performed immediately after sampling, while samples for molecular analyses were shock frozen in liquid nitrogen and stored at −80° C.
Prostate strips (6×3×3 mm) were mounted in 10 ml aerated (95% 02 and 5% CO2) tissue baths (Danish Myotechnology, Aarhus, Denmark), containing Krebs-Henseleit solution (37° C., pH 7.4) with following composition: 118 mM NaCl, 4.7 mM KCl, 2.55 mM CaCl2), 1.2 mM KH2PO4, 1.2 mM MgSO4, 25 mM NaHCO3, 7.5 mM glucose. In each single experiment, two from four strips obtained from the same prostate were allocated to the control group (without inhibitor or antagonist), and two others to the inhibitor/antagonist group (resulting in duplicate determination for each group in each single experiment). All four samples of one experiment were examined in four chambers of the same organ bath. Consequently, control and inhibitor curves in each series/diagram were obtained from the same prostates, but different prostates were examined for different series/diagrams. […] Only one curve was recorded with each sample, i. e. for one agonist, or for electric field stimulation (EFS).
as §3

Data set [5] has as its system WPMY-1 cells. Description: EdU proliferation assay. Conditions: 24 h. In kind it is cell-based, human. The protocol: (§4) WPMY-1 cells are an immortalized cell line obtained from human prostate stroma without prostate cancer (Webber et al., 1999). Cells were obtained from American Type Culture Collection (ATCC; Manassas, Va., USA), and kept in RPMI 1640 (Gibco, Carlsbad, Calif., USA) supplemented with 10% fetal calf serum (FCS) and 1% penicillin/streptomycin at 37° C. with 5% CO2. Before addition of onvansertib or DMSO, the medium was changed to a FCS-free medium. For Western blot analysis, cells were lyzed using radioimmunoprecipitation assay (RIPA) buffer (Sigma-Aldrich, St. Louis, Mo., USA), and removed from flasks after 15 min of incubation on ice. Cell debris was removed by centrifugation (10,000 g, 10 min, 4° C.), and different aliquots of supernatants were either subjected to protein determination, or boiled with SDS sample buffer.
WPMY-1 cells were plated with cell line-specific densities (50,000/well) on 16-well chambered coverslips (Thermo Scientific, Waltham, Mass., USA). […] 20 h later, cells were fixed with 3.7% formaldehyde. EdU incorporation was determined using the “EdU-Click 555” cell proliferation assay (Baseclick, Tutzing, Germany) according to the manufacturer's instructions. In this assay, incorporation of EdU into DNA is assessed by detection with fluorescing 5-carboxytetramethylrhodamine (5-TAMRA). Counterstaining of all nuclei was performed with DAPI. Cells were analyzed by fluorescence microscopy (excitation: 546 nm; emission: […]).

Data set [6] in a line: CCK-8 viability (cytotoxicity) assay. The class given is cell-based. Conditions: human, WPMY-1 cells (immortalized prostate stromal cells), read-out: decrease of viability. The protocol: as §4
Viability of cells was assessed using the Cell Counting Kit-8 (CCK-8) (Sigma-Aldrich, St. Louis, Mo., USA). […] Subsequently, cells were grown for different periods (24, 48, 72 h). Separate controls were performed for each period. At the end of this period, 10 μl of [2-(2-methoxy-4-nitrophenyl)-3-(4-nitrophenyl)-5-(2,4-disulfophenyl)-2H-tetrazolium monosodium salt (WST-8) from CCK-8 was added, and absorbance in each well was measured at 450 nm after incubation for 2 h at 37° C.

Data set [7] has as its system WPMY-1 cells. Description: plate colony formation assay. In kind it is cell-based, human. Conditions: 14 days. How it is done: as §4
Cells were incubated at 37° C. for 14 days, then washed twice with PBS, and fixed by 2 ml of 10% trichloroacetic acid overnight (4° C.). Subsequently, all plates were washed five times with cold water, and stained with 0.4% sulforhodamine B solution (diluted in 1% acetic acid) at room temperature for 30 min. Before taking photos, all plates were labeled and washed five times with 1% acetic acid. The number of colonies containing 50 cells or more was counted under a microscope.

Take `CN1CCN(c2ccc(OC(F)(F)F)c(Nc3ncc4c(n3)-c3c(c(C(N)=O)nn3CCO)CC4)c2)CC1` [onvansertib, 1-(2-hydroxyethyl)-8-{[5-(4-methylpiperazin-1-yl)-2-(trifluoromethoxy)phenyl]amino}-4,5-dihydro-1H-pyrazolo[4,3-h] quinazoline-3-carboxamide]: the figures for the inhibition at 0.1 µM in the data set with human prostate tissues [1], with human prostate tissues [3] and with human prostate tissues [4] (Homo sapiens) were 43 ± 19.4%, 45 ± 6.6% and 45 ± 9.7%, respectively. In the data set with human prostate tissues [2], the “effect on U46619-induced contractions” value was “did not change”. The IC50 (in general, the point on the concentration scale where inhibition reaches its midpoint) with CK2 is 826 nM. Testing at 1 µM in the data set with human prostate tissues [4] (Homo sapiens) gave an inhibition of 41 ± 6.2%. The “noradrenaline-induced contractions after washout versus DMSO” value with human prostate tissues [4] (washout of onvansertib (100 nM) for 30 min) is listed as “did not differ”. Further, the “decrease of percentage of proliferating cells” value is on record as 18±0.1% in the data set with WPMY-1 cells [5] (10 nM), 24±2.1% with WPMY-1 cells [5] (50 nM) and 35±2.0% in the data set on WPMY-1 cells [5] (100 nM). In data set [6] (10 nM, 24 h), the cytotoxicity at 24 h, 10 nM is 15 ± 8.8%. In data set [6] (10 nM, 48 h), the cytotoxicity at 48 h, 10 nM is 28 ± 8.3%. Besides, in data set [6] (10 nM, 72 h), the cytotoxicity at 72 h, 10 nM stood at 40 ± 4.4%. Further, in data set [6] (100 nM, 24 h), the cytotoxicity at 24 h, 100 nM was found to be 63 ± 2.2%. For the same molecule, the cytotoxicity at 48 h, 100 nM in data set [6] (100 nM, 48 h) came out at 86 ± 1.9%. In data set [6] (100 nM, 72 h), the cytotoxicity at 72 h, 100 nM was 89 ± 1.4%. Moreover, the entries for the “decrease of colony formation” value in the data set on WPMY-1 cells [7] (10 nM), in the data set with WPMY-1 cells [7] (50 nM) and in the data set on WPMY-1 cells [7] (100 nM) were 39±4.5%, 89±1.9% and 97±0.4%, respectively.
